Measurements as given in patent publication US20240207422A1, “NERVE TARGETING PEPTIDE CONJUGATES AND METHODS OF USE” (Alume Biosciences, Inc., priority 2022, published 2024).

System: excised human nerve tissue
Test: Phage display selection on excised human nerve tissue (Nerve2, Nerve3), NextGen sequence counts
Format: binding
Details: unique sequence count (relative enrichment)
Protocol: Several m13 phage libraries were constructed expressing randomized variants of a parent peptide (QVPWEEPYYVVKKS-SGGL; SEQ ID NO: 576). In particular, the first 14 amino acids of the parent peptide were randomized using degenerate oligonucleotide synthesis to obtain a diverse set of peptides with a mutation rate of about 50% per residue.
To accomplish this, synthesis was carried out by the XXK codon design approach, where X is any base and K is G or T. To bias synthesis towards the parent sequence, synthesis was carried out at each X position with a mixture of about 70%-85% of the parent nucleotide and 15-30% of the remaining 3 nucleotides. The resulting molecules were inserted into fADL-1e (Antibody Design Laboratories), which is a type 3 phage display vector having a cloning site on the N-terminal side of the full-length gene III protein. The fusion proteins are directed to the periplasm by the PelB leader peptide, which is inserted in the vector […].
Collectively, the phage display libraries used in the screens comprised about 600 million peptides, with sequencing analysis confirming a mutation rate of about 50% per residue.
Phage libraries were independently processed, as follows, with five biological samples: two independent samples of excised human nerve tissue, one sample of a human nerve extract, and two independent samples of human muscle tissue, as follows:
Excised Human Nerve Tissue: For each of the two independent samples, phage were processed through multiple cycles of selection, with representative phage being isolated and sequenced after each selection cycle. Specifically, for selection using human nerve tissue, a sample of […] tissue (2 mm by 2 mm) was washed prior to mixing and incubation with a phage library. After incubation, the mixture (containing mostly intact nerves with phage particles that had variable affinity for nerves) was centrifuged and the nerve pellet washed multiple times with PBS to remove phage with little or no affinity for nerve tissue. The pellet was homogenized and plated for titering and reamplification. Phage that were bound at each round were sequenced. NextGen sequencing of pools after 2, 3 and 4 rounds of selection were used to isolate candidate sequences that were further analyzed using bioinformatics.
NextGen sequencing of pools after 2, 3 and 4 rounds of selection were used to isolate candidate sequences from each of the five samples. These five data sets were then analyzed as described in the next section.
Peptide and vector sequences were translated starting at the first start codon in the nucleotide sequence. […] Trimmed peptides with identical sequences were combined and quantified according to their frequency (count).
Following processing, an R script was written to merge the unique peptide sequences (with counts 6 or greater) from the 5 different data sets to analyze the overlap between nerve and muscle binding activity.
For the single Nerve2, Nerve3, and Plated Nerve2 (pn2) subsets, the number of counts for each group was set at a threshold giving rise to at least 100 peptides. […] As highlighted in yellow in FIG. 1B, the representative group also included 6 unique peptides overlapping between nerve2 and nerve3, 200 unique peptides overlapping between nerve2 and plated nerve2 (at least 60 counts), 4 unique peptides overlapping between nerve3 and plated nerve2. Finally, as highlighted in green in FIG. 1B, the representative group also included […] common to the nerve2, nerve3, and plated nerve2 sets.

[1] = peptides overlapping between Nerve2 and Plated Nerve2
[2] = peptides common to Nerve2, Nerve3 and Plated Nerve 2 sets

| Substance | Count [1] | further results |
| --- | --- | --- |
| 257 (YVPGAAPIGIVHKS) [compound 257] |  | Count (Nerve2 only): 14 |
| 360 (YLFAEELAYNLTKS) [compound 360] |  | Count (Nerve3 only): 359 |
| 78 (HFPSKALNNTAKNT) [compound 78] | 151 |  |
| 401 (RVYWIDPYYIVNES) [compound 401] |  | Count (Nerve3 only): 174 |
| 189 (QDYWAKPSYIVKHS) [compound 189] | 72 |  |
| 229 (EFSREQPNDFLNKS) [compound 229] | 63 |  |
| 102 (HLPSQVTHYVITSF) [compound 102] | 115 |  |
| 248 (HFAWVVPNDAVKAS) [compound 248] |  | Count (Nerve2 only): 15 |
| 89 (QVTSEEHYFAVKKF) [compound 89] | 136 |  |
| 237 (RLAWEEPHYVVKKS) [compound 237] | 61 |  |
| 68 (HVLWEDSSYHVTHH) [compound 68] | 179 |  |
| 146 (QYPREEPRHALKMS) [compound 146] | 88 |  |
| 414 (QGSSVATSSVLTML) [compound 414] |  | Count (Nerve3 only): 123 |
| 411 (NDPWPVPYYMVKNS) [compound 411] |  | Count (Nerve3 only): 130 |
| 154 (QMASKEPNYPVKNS) [compound 154] | 82 |  |
| 265 (QSPWDEPYYGVLMA) [compound 265] |  | Count (Nerve2 only): 13 |
| 224 (HVPLQGPYYVKQKP) [compound 224] | 64 |  |
| 271 (HVQLREHYFVVYSS) [compound 271] |  | Count (Nerve2 only): 12 |
| 103 (QVPSHEPFYLGKKY) [compound 103] | 114 |  |
| 15 (HVAGGERYFSVKES) [compound 15] |  | Count [2]: 185 |
| 101 (YNLYEQPYSVLKRS) [compound 101] | 122 |  |
| 91 (HDASIALYDPVLMS) [compound 91] | 133 |  |
| 291 (HVTLAEPHLLLGKS) [compound 291] |  | Count (Nerve2 only): 11 |
| 416 (HVWWEEAHYSWKHS) [compound 416] |  | Count (Nerve3 only): 120 |

| Substance | Count [1] | further results |
| --- | --- | --- |
| 111 (HSRLHETSYVFNKP) [compound 111] | 110 |  |
| 26 (HLPEEELYTIVRKT) [compound 26] |  | Count [2]: 85 |
| 426 (QVRGGQPDQVLRLS) [compound 426] |  | Count (Nerve3 only): 105 |
| 134 (EVPRTERNFVVKNT) [compound 134] | 94 |  |
| 331 (QIQWQGSYNDLNKS) [compound 331] |  | Count (Nerve2 only): 10 |
| 121 (HYQSVKSYSVQKKI) [compound 121] | 105 |  |
| 95 (DHPWDVRHYAHKKS) [compound 95] | 126 |  |
| 420 (QFGQENHNHFVRKS) [compound 420] |  | Count (Nerve3 only): 113 |
| 307 (HAPADQLYYPVWKP) [compound 307] |  | Count (Nerve2 only): 10 |
| 351 (ELPWQKRKDVMKYP) [compound 351] |  | Count (Nerve3 only): 638 |
| 415 (QPCADKPYCVHTIT) [compound 415] |  | Count (Nerve3 only): 123 |
| 83 (SIPGEDSLYAVTEH) [compound 83] | 142 |  |
| 287 (HLSQYEPYDPVDKS) [compound 287] |  | Count (Nerve2 only): 11 |
| 332 (QISSEEPTSLLDRP) [compound 332] |  | Count (Nerve2 only): 10 |
| 311 (HMPGREPYYVVTTS) [compound 311] |  | Count (Nerve2 only): 10 |
| 132 (TLPVYVPYYVVNNT) [compound 132] | 96 |  |
| 293 (NLPGVEQYNLPNSS) [compound 293] |  | Count (Nerve2 only): 11 |
| 52 (ATEWEESYFHVKKF) [compound 52] | 223 |  |
| 255 (QLPWTNPFHVVNKY) [compound 255] |  | Count (Nerve2 only): 14 |
| 278 (QLPSKASNSVQQTF) [compound 278] |  | Count (Nerve2 only): 12 |
| 239 (NVTSREPYHLLEKS) [compound 239] | 60 |  |
| 256 (QYSLDESPYGAKKS) [compound 256] |  | Count (Nerve2 only): 14 |
| 151 (QFAWEHRDYVLQRS) [compound 151] | 85 |  |
| 219 (QTSWAGPHDRVTKA) [compound 219] | 65 |  |

| Substance | Count [1] | further results |
| --- | --- | --- |
| 421 (QVSLVESRSVLKIL) [compound 421] |  | Count (Nerve3 only): 110 |
| 350 (HVRCEEPYCHVRKS) [compound 350] |  | Count (Nerve3 only): 755 |
| 324 (KQLGVLPDYVRKNT) [compound 324] |  | Count (Nerve2 only): 10 |
| 333 (QKPTGASYYGTKPS) [compound 333] |  | Count (Nerve2 only): 10 |
| 231 (HVTSHEARYLAQNS) [compound 231] | 63 |  |
| 87 (QLPWYEADYRMEYY) [compound 87] | 139 |  |
| 196 (DVEWEEPYYFLEKS) [compound 196] | 70 |  |
| 54 (QIANKEPHTYVENS) [compound 54] | 213 |  |
| 223 (HVHFTDPHYVMKKS) [compound 223] | 64 |  |
| 172 (QIPSHSPYYALNSS) [compound 172] | 77 |  |
| 84 (QCPSEQPNYVCKIF) [compound 84] | 140 |  |
| 55 (QIRSEVTHSVVRES) [compound 55] | 213 |  |
| 320 (HVTWGEPYQVLNKS) [compound 320] |  | Count (Nerve2 only): 10 |
| 128 (QIYWHESNYLVTKS) [compound 128] | 102 |  |
| 266 (QSTPEERYHRVIQA) [compound 266] |  | Count (Nerve2 only): 13 |
| 385 (HVSGEEPYTVGNTS) [compound 385] |  | Count (Nerve3 only): 234 |
| 299 (QITFEVPCCLVRKG) [compound 299] |  | Count (Nerve2 only): 11 |
| 284 (DRPVEVPSDFVNNS) [compound 284] |  | Count (Nerve2 only): 11 |
| 377 (HVPLPGPYFVLKNY) [compound 377] |  | Count (Nerve3 only): 263 |
| 354 (QIASEERDNIVKKS) [compound 354] |  | Count (Nerve3 only): 462 |
| 300 (QLGLDKLNHLVKKS) [compound 300] |  | Count (Nerve2 only): 11 |
| 177 (EALWYKHYYGVHKT) [compound 177] | 75 |  |
| 51 (QLHGDELLSVVKNP) [compound 51] | 232 |  |
| 303 (RLPEAEPYYLMTQP) [compound 303] |  | Count (Nerve2 only): 11 |

| Substance | Count [1] | further results |
| --- | --- | --- |
| 436 (DVPWEQPYFVVRNS) [compound 436] |  | Count (Nerve3 only): 90 |
| 371 (RDRHEDSKFVMNHS) [compound 371] |  | Count (Nerve3 only): 290 |
| 438 (QLRWEDQYAHVEKS) [compound 438] |  | Count (Nerve3 only): 89 |
| 81 (RVAIDELYLIAHKS) [compound 81] | 147 |  |
| 218 (QPPREQPYHIMKNS) [compound 218] | 65 |  |
| 108 (DFATEERRYAVPKY) [compound 108] | 111 |  |
| 4 (HVPGVDPYSVVKKF) [compound 4] |  | Count [2]: 368 |
| 267 (QVPLGAPFYAVRKS) [compound 267] |  | Count (Nerve2 only): 13 |
| 190 (QISLTEATLVVRKS) [compound 190] | 72 |  |
| 120 (QLEWEEPHYAARKS) [compound 120] | 107 |  |
| 100 (QFPSGHRVYTGKMT) [compound 100] | 122 |  |
| 65 (HVAEAESYNVVKKT) [compound 65] | 187 |  |
| 366 (QLRLGDLYNVMTKE) [compound 366] |  | Count (Nerve3 only): 328 |
| 373 (HVRWGEPSYVLKNF) [compound 373] |  | Count (Nerve3 only): 272 |
| 193 (HFALQDPYQVFKKT) [compound 193] | 71 |  |
| 178 (HVVRHYPPHFVHKS) [compound 178] | 75 |  |
| 13 (DILLDELRFAEKHG) [compound 13] |  | Count [2]: 203 |
| 71 (QARFEQPYSGLRDS) [compound 71] | 167 |  |
| 160 (QEPWDEFSYNVNAL) [compound 160] | 80 |  |
| 214 (HGPTDGPYYVSKKS) [compound 214] | 65 |  |
| 67 (HITGGVPYPVVRDS) [compound 67] | 185 |  |
